Assay results from article PMC13352219, “Analysis of glutamine synthetase target‐site mutations and their role in endowing glufosinate‐ammonium resistance” (Pest Management Science, 2026).
Entries after “also recorded” stand apart in the source; their conditions may differ.

Legend:
[1] = molecular target: Amaranthus palmeri GS2.2 wild‐type (WT); assay: GS enzyme inhibition assay, GS2.2 wild-type; assay type: biochemical; details: GS2.2 WT
Procedure: (§1) GS activity was determined spectrophotometrically following the Sigma‐Aldrich enzymatic assay protocol. The reaction couples the ATP‐dependent conversion of L‐glutamate and ammonium to L‐glutamine with pyruvate kinase (PK) and L‐lactate dehydrogenase (LDH), such that oxidation of β‐NADH to β‐NAD^+ can be monitored at 340 nm. Recombinant GS from A. palmeri was expressed in E. coli, purified by affinity chromatography, and quantified by the Bradford method using bovine serum albumin as standard. […] Reaction mixtures were equilibrated to 37°C and initiated by the addition of enzyme, and the decrease in absorbance at 340 nm was recorded for 5–10 min; only the linear portion of the curve was used for activity calculations. […] Activity was calculated using an extinction coefficient for NADH of 6.22 mM^−1 cm^−1 and expressed as units per mg protein, where one unit corresponds to the formation of 1 μmol of L‐glutamine in […] at pH 7.1 and 37 °C. […] Percent inhibition was calculated relative to untreated (positive) and no‐enzyme (negative) controls. […] Resistance factors were calculated by dividing the IC₅₀ of each mutant variant by that of wild‐type GS.

[2] = test system: Amaranthus palmeri GS2.2 G255D; assay: GS enzyme inhibition assay, GS2.2 G255D; assay type: biochemical; details: full range of GFA concentrations tested (10^−8 M to 10^−2 M), listed as GFA
Procedure: as §1

[3] = test system: Arabidopsis thaliana plants expressing Amaranthus palmeri GS2.2 G255D; assay: Postemergence GFA spray on transgenic Arabidopsis expressing GS2.2 G255D; assay type: in vivo; details: 100, 500 and 1000 g ha^−1 postemergence, listed as GFA
Excerpt: (§2) Mutant GS variants G2.2 G255D from A. palmeri and G254D from Arabidopsis were cloned into the RTP6557 transformation vector, which was subsequently introduced into Agrobacterium tumefaciens strain C58C1pMP90. The construct also carried an acetolactate synthase (ALS) herbicide‐resistance gene as a selectable marker, ensuring that Arabidopsis seedlings tested for resistance to GFA herbicide expressed the transgene.
(§3) Arabidopsis plants carrying immature floral buds were transformed by the floral‐dip method, immersing inflorescences for 10 s in the bacterial suspension supplemented with Silwet‐L77 at 0.05% v/v. After dipping, plants were maintained overnight under high humidity and low light, then transferred to long‐day conditions until maturity. Once siliques had yellowed, seeds were harvested into paper bags. T₁ seeds were collected, placed into Falcon tubes, and stored at 4 °C.
(§4) After ≥14 d of cold storage, T₁ seeds were sown and stratified as previously described. Transgenic plants were confirmed by PCR detection of the AHAS resistance marker gene. […]
(§5) Herbicide treatments were applied at the 10‐leaf stage using a spray chamber calibrated to deliver 375 L ha^−1 of spray solution. […] Herbicide efficacy was visually evaluated 7 d after application.

[4] = test system: Arabidopsis thaliana plants expressing Arabidopsis GS2.2 G254D; assay: Postemergence GFA spray on transgenic Arabidopsis expressing GS2.2 G254D; assay type: in vivo; details: transgenic Arabidopsis expressing Arabidopsis GS2.2 G254D; 100, 500 and 1000 g ha^−1 postemergence; listed as GFA
Excerpt: as §2, §3, §4, §5

[5] = test system: Amaranthus palmeri cytosolic GS1.1 E131A; assay: GS enzyme inhibition assay, GS1.1 E131A; assay type: biochemical
Procedure: as §1

[6] = test system: Amaranthus palmeri cytosolic GS1.1 E131D; assay: GS enzyme inhibition assay, GS1.1 E131D; assay type: biochemical
Procedure: as §1

[7] = test system: Amaranthus palmeri cytosolic GS1.1 E131G; assay: GS enzyme inhibition assay, GS1.1 E131G; assay type: biochemical
Procedure: as §1

[8] = test system: Amaranthus palmeri cytosolic GS1.1 E131Q; assay: GS enzyme inhibition assay, GS1.1 E131Q; assay type: biochemical
Procedure: as §1

[9] = test system: Amaranthus palmeri cytosolic GS1.1 R291C; assay: GS enzyme inhibition assay, GS1.1 R291C; assay type: biochemical
Procedure: as §1

[10] = test system: Amaranthus palmeri cytosolic GS1.1 R311L; assay: GS enzyme inhibition assay, GS1.1 R311L; assay type: biochemical
Procedure: as §1

[11] = test system: Amaranthus palmeri cytosolic GS1.1 R311P; assay: GS enzyme inhibition assay, GS1.1 R311P; assay type: biochemical
Procedure: as §1

[12] = test system: Amaranthus palmeri cytosolic GS1.1 K36A; assay: GS enzyme inhibition assay, GS1.1 K36A; assay type: biochemical
Procedure: as §1

[13] = test system: Amaranthus palmeri cytosolic GS1.1 S58M; assay: GS enzyme inhibition assay, GS1.1 S58M; assay type: biochemical
Procedure: as §1

[14] = test system: Amaranthus palmeri cytosolic GS1.1 G155F; assay: GS enzyme inhibition assay, GS1.1 G155F; assay type: biochemical
Procedure: as §1

[15] = test system: Amaranthus palmeri cytosolic GS1.1 G160T; assay: GS enzyme inhibition assay, GS1.1 G160T; assay type: biochemical
Procedure: as §1

[16] = test system: Amaranthus palmeri cytosolic GS1.1 A163Y; assay: GS enzyme inhibition assay, GS1.1 A163Y; assay type: biochemical
Procedure: as §1

[17] = test system: Amaranthus palmeri cytosolic GS1.1 E297Q; assay: GS enzyme inhibition assay, GS1.1 E297Q; assay type: biochemical
Procedure: as §1

[18] = test system: Amaranthus palmeri cytosolic GS1.1 A309L; assay: GS enzyme inhibition assay, GS1.1 A309L; assay type: biochemical
Procedure: as §1

[19] = test system: Amaranthus palmeri cytosolic GS1.1 R316E; assay: GS enzyme inhibition assay, GS1.1 R316E; assay type: biochemical
Procedure: as §1

[20] = read-out: Glufosinate‐ammonium IC50

CP(=O)(O)CCC(N)C(=O)O (stereo not shown) [Glufosinate‐ammonium]
IC50 [1]: 110 µM | inhibition by GFA [2]: completely insensitive; also recorded: no measurable inhibition; also recorded: no detectable inhibition | tolerance to GFA (visual injury) [3]: chlorosis and necrosis comparable to wild‐type controls | tolerance to GFA (visual injury) [4]: failed to confer tolerance; also recorded: sensitive phenotype | Glufosinate‐ammonium % Inhibition at saturation 10 000 μM ([5]; 10 000 μM): 8.5% | IC50 [5, 20]: > 10000 µM | Glufosinate‐ammonium % Inhibition at saturation 10 000 μM ([6]; 10 000 μM): 48% | IC50 [6, 20]: > 10000 µM | Glufosinate‐ammonium % Inhibition at saturation 10 000 μM ([7]; 10 000 μM): 7.2% | IC50 [7, 20]: > 10000 µM | Glufosinate‐ammonium % Inhibition at saturation 10 000 μM ([8]; 10 000 μM): 6.5% | IC50 [8, 20]: > 10000 µM | Glufosinate‐ammonium % Inhibition at saturation 10 000 μM ([9]; 10 000 μM): 0% | IC50 [9, 20]: > 10000 µM | Glufosinate‐ammonium % Inhibition at saturation 10 000 μM ([10]; 10 000 μM): 14% | IC50 [10, 20]: > 10000 µM | Glufosinate‐ammonium % Inhibition at saturation 10 000 μM ([11]; 10 000 μM): 0% | IC50 [11, 20]: > 10000 µM | Resistance index (RI) ([12]; IC50 variant / IC50 WT): 11.5 | IC50 [12, 20]: 248 µM | Resistance index (RI) ([13]; IC50 variant / IC50 WT): 4.3 | IC50 [13, 20]: 94 µM | Resistance index (RI) ([14]; IC50 variant / IC50 WT): 11.7 | IC50 [14, 20]: 254 µM | Resistance index (RI) ([15]; IC50 variant / IC50 WT): 18.7 | IC50 [15, 20]: 405 µM | Resistance index (RI) ([16]; IC50 variant / IC50 WT): 2.5 | IC50 [16, 20]: 54 µM | Resistance index (RI) ([17]; IC50 variant / IC50 WT): 0.0 | IC50 [17, 20]: 0.6 µM | Resistance index (RI) ([18]; IC50 variant / IC50 WT): 9.4 | IC50 [18, 20]: 204 µM | Resistance index (RI) ([19]; IC50 variant / IC50 WT): 9.1 | IC50 [19, 20]: 197 µM
